SMILES strings stand for the structures.

Our source for the IC50 and responders values is patent US5173500A, “Pharmaceutical compositions and methods of sulphonamides containing a tetrazolyl radical” (Boehringer Mannheim GmbH, priority 1988, dated 1992).

The test system of test [1] is thrombocyte aggregation induced by thromboxane mimetic U 46619 (TX antagonistic effect). Kind of test: Thrombocyte aggregation induced by U 46619 in platelet-rich plasma (method of Born and Cross). Particulars: Homo sapiens, 5 min; platelet-rich plasma of healthy blood donors; aggregation induced by U 46619, followed over 5 minutes. The class given is cell-based. An excerpt:
Thrombocyte aggregation was investigated by the method of Born to Cross (J. Physiol. 168, 178 (1963)) in platelet-rich plasma of healthy blood donors. To inhibit clotting, the blood was mixed with 3.2% citrate in a ration by volume 1:9.
To induce thrombocyte aggregation, U 46619 (Upjohn & Co., Kalamazoo, Mich., USA), which is a stable analog of the prostagladin endoperoxide PHG2, was used. U 46619 has been characterized as a selective thromboxane mimetic (Coleman et al., Brit. J. Pharmacol. 68, 127 P., 1980).
The aggregation test was carried out in a 4-channel aggregometer (Profiler®, of the Bio/Data Co., USA). The course of the aggregation was followed over a period of 5 minutes. At the end of the test, the degree of aggregation attained was printed out. These values, which were obtained in the presence of different concentrations of the substance being tested, were used for the determination of the IC50 value for the TX antagonistic effect. The effectiveness varies inversely with the IC50 value.

Test [2] concerns Male NMRI mice challenged with lethal dose of U 46619. In words: Survival of mice after lethal i.v. injection of thromboxane mimetic U 46619. The class given is in vivo. Particulars: Mus musculus, iv, lethal dose U 46619 (800-1000 ug/kg) i.v. after 4 hours; for responders at 1 mg/kg: 1 mg/kg by stomach tube in 1% methylcellulose, read-out: Survival Rate of Mouse 1 mg/kg, 4 h in %; for responders at 25 mg/kg: 25 mg/kg by stomach tube in 1% methylcellulose, read-out: Survival Rate of Mouse 25 mg/kg, 4 h in %. The method, then: Male NMRI mice, with a body weight of 25 g, were used. The test substance was suspended in 1% methylcellulose and administered to the experimental animals with the aid of a stomach tube. The provacation test consisted of injecting a lethal dose (800-1000/ug/kg) of the thromboxane mimetic (U 46619, Upjohn Co.) rapidly into the tail vein. The duration of the specific antagonistic effect was tested by pretreating the animals with 25 or 1 mg/kg of the different test substances and injecting U 46619 after 4 hours. The survival rate indicates how many of the animals which were used survived the injection of the thromboxane mimetic.

`O=C(CCC(=O)c1ccc(CCNS(=O)(=O)c2ccc(Br)cc2)cc1)Nc1nnn[nH]1` [6/III, 4-Oxo-4-{4-[2-(4-bromobenzenesulphonamido)-ethyl]-phenyl}-butyric acid (1H-tetrazol-5-yl)-amide]: it took 55 µM to reach half-maximal inhibition in test [1] (IC50). Moreover, in test [2], the responders at 1 mg/kg was found to be 100% and the responders at 25 mg/kg was 100%.
For the molecule `O=C(COc1ccc(CCNS(=O)(=O)c2ccc(Cl)cc2)cc1)Nc1nnn[nH]1` [Example 4, 4-[2-(4-Chlorobenzenesulphonamido)-ethyl]-phenoxyacetic acid (1H-tetrazol-5-yl)-amide], the IC50 in test [1] amounted to 9 µM. Besides, in test [2], the responders at 1 mg/kg was 80% and the responders at 25 mg/kg was 100%.
In turn, `O=C(Cc1ccc(CCNS(=O)(=O)c2ccc(Cl)cc2)cc1)Nc1nnn[nH]1` [Example 5, 4-[2-(4-Chlorobenzenesulphonamido)-ethyl]-phenylacetic acid (1H-tetrazol-5-yl)-amide] yielded an IC50 in test [1] of 0.9 µM. Besides, in test [2], the responders at 1 mg/kg came out at 80% and the responders at 25 mg/kg turned out to be 100%.
In test [1], `O=S(=O)(NCCc1ccc(Nc2nnn[nH]2)cc1)c1ccc(Cl)cc1` [Example 3, 4-[2-(4-Chlorobenzenesulphonamido)-ethyl]-N-(1H-tetrazole-5-yl)-aniline] gave an IC50 of 0.2 µM. In test [2], the responders at 1 mg/kg came out at 20% and the responders at 25 mg/kg was determined as 100%.
The molecule `O=S(=O)(NCCc1ccc(Cc2nnn[nH]2)cc1)c1ccc(Cl)cc1` [Example 8, 5-{4-[2-(4-Chlorobenzenesulphonamido)-ethyl]-phenyl-methyl}-1H-tetrazole] came in with an IC50 in test [1] of 0.07 µM. Moreover, in test [2], the responders at 1 mg/kg came out at 100% and the responders at 25 mg/kg amounted to 100%.
On to `O=C(COc1cccc(CCNS(=O)(=O)c2ccccc2Cl)c1)Nc1nnn[nH]1` [Example 16, 3-[2-(2-Chlorobenzenesulphonamido)-ethyl]-phenoxyacetic acid (1H-tetrazol-5-yl)-amide], for which the IC50 in test [1] came out at 17 µM. Besides, in test [2], the responders at 1 mg/kg was found to be 40% and the responders at 25 mg/kg turned out to be 100%.
On the same counts, the results for `O=C(COc1cccc(CCNS(=O)(=O)c2ccc(Cl)cc2)c1)Nc1nnn[nH]1` [Example 2, 3-[2-(4-Chlorobenzenesulphonamido)-ethyl]-phenoxyacetic acid (1H-tetrazol-5-yl)-amide] are 6 µM, 100% and 100%.
The molecule `Cc1ccc(S(=O)(=O)NCCc2cccc(OCC(=O)Nc3nnn[nH]3)c2)cc1` [Example 15, 3-[2-(4-Methylbenzenesulphonamido)-ethyl]-phenoxyacetic acid (1H-tetrazol-5-yl)-amide] came in with a half-maximal inhibitory concentration (IC50) in test [1] of 24 µM. For the same molecule, in test [2], the responders at 1 mg/kg is 100% and the responders at 25 mg/kg amounted to 100%.

By IC50 is commonly meant the concentration at which inhibition is half-maximal.
